Results: ChEMBL document CHEMBL5034004, “Discovery of M3 Antagonist-PDE4 Inhibitor Dual Pharmacology Molecules for the Treatment of Chronic Obstructive Pulmonary Disease” (J Med Chem, 2021)
In brackets after ≈: the same amount, converted by molar mass.

Tests used:
[1] = target: 3',5'-cyclic-AMP phosphodiesterase 4B (Homo sapiens, UniProt Q07343); assay: Inhibition of human recombinant PDE4B2 assessed as […] in cAMP level incubated for 2 hrs by LANCE Ultra cAMP TR-FRET assay
[2] = Antagonist activity at muscarinic M3 receptor in guinea pig trachea assessed as inhibition of carbachol-induced contraction; format: tissue-based, Cavia porcellus
Cavia porcellus [3] = assay: Bronchodilatory activity in Dunkin Hartley guinea pig model assessed as inhibition of acetylcholine-induced bronchoconstriction at 3 nmol/kg, IT measured after 1 hr by Konzett-Roessler methodology relative to control; format: functional; conditions: for inhibition in vivo at 0.003 µmol/kg: Cavia porcellus, Dunkin Hartley
[4] = target: T1, Muscarinic acetylcholine receptor M3 (Homo sapiens, UniProt P20309); assay: Displacement of [3H]-N-methyl Scopolamine Chloride from human M3 receptor membranes incubated for 2 hrs by scintillation counting analysis; format: cell membranes, Cell membrane
Target sequence in this assay (P20309 whole entry): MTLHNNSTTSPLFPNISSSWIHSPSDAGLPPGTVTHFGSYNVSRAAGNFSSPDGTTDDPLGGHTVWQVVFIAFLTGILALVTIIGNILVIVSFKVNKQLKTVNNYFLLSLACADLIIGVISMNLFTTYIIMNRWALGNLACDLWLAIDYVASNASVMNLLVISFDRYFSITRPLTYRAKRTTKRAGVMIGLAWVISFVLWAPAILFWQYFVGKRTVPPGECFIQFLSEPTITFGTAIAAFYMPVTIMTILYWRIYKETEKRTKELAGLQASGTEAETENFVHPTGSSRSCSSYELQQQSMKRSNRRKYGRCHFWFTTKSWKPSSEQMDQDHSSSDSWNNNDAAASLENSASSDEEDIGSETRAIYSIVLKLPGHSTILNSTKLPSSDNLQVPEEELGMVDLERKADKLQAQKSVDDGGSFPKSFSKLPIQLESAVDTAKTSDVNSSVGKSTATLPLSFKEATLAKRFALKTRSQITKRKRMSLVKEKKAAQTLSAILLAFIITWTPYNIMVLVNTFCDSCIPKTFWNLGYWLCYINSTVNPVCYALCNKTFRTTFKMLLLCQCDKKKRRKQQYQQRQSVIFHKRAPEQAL

Cavia porcellus [5] = assay: Bronchodilatory activity in IT dosed Dunkin Hartley guinea pig model assessed as inhibition of acetylcholine-induced bronchoconstriction measured after 1 hr by Konzett-Roessler methodology; format: functional
[6] = Antiinflammatory activity in human PBMCs assessed as inhibition of LPS-induced TNF-alpha release measured after 18 hrs by ELISA; format: functional, tissue-based, PBMC; conditions: for IC50: Homo sapiens, PBMC, 18 h; for pIC50: pbmc
Cavia porcellus [7] = assay: Bronchodilatory activity in Dunkin Hartley guinea pig model assessed as inhibition of acetylcholine-induced bronchoconstriction at 10 nmol/kg, IT measured after 1 hr by Konzett-Roessler methodology relative to control; format: functional
Cavia porcellus [8] = assay: Bronchodilatory activity in Dunkin Hartley guinea pig model assessed as inhibition of acetylcholine-induced bronchoconstriction at 3 nmol/kg, IT measured after 16 hrs by Konzett-Roessler methodology relative to control; format: functional; conditions: for inhibition (INH): 0.003 umol/kg
[9] = Kinetic solubility of compound in PBS at pH 7.4 […] incubated for 2 hrs by LC-UV and LC-MS analysis; format: physicochemical; conditions: read-out: Kinetic_solubility
[10] = target: T1, Muscarinic acetylcholine receptor M3; assay: Binding affinity to human M3 receptor membranes assessed as association half life by liquid scintillation counting analysis; conditions: Cell membrane, filed as antagonist
Target sequence in this assay (P20309 whole entry, looked up): as the sequence (P20309 whole entry) above

[11] = target: T1, Muscarinic acetylcholine receptor M3; assay: Binding affinity to human M3 receptor membranes assessed as dissociation half life by liquid scintillation counting analysis; conditions: Cell membrane, filed as antagonist
Target sequence in this assay (P20309 whole entry, looked up): as the sequence (P20309 whole entry) above

[12] = target: Muscarinic acetylcholine receptor M3 (Rattus norvegicus, UniProt P08483); assay: Antagonist activity at muscarinic M3 receptor in rat trachea assessed as inhibition of carbachol-induced contraction; format: functional, tissue-based
Muscarinic acetylcholine receptor M3 (Rattus norvegicus, UniProt P08483), sequence (P08483 whole entry): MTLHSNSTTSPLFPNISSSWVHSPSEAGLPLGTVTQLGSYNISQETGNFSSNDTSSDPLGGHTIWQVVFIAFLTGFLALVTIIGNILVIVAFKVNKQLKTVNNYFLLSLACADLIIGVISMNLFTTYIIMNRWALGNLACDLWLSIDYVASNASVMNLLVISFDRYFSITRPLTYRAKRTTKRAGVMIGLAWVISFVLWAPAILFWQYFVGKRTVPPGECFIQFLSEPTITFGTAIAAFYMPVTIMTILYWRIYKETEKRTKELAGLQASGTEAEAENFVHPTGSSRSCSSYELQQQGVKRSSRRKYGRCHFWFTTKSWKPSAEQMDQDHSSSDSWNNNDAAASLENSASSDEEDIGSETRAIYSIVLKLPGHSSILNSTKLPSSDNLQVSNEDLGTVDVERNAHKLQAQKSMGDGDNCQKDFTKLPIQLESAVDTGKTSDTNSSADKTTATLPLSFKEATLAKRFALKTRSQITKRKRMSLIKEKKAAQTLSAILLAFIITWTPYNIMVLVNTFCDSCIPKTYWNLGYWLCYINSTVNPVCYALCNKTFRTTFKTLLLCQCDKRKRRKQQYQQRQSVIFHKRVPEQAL

[13] = Toxicity in ferret assessed as nausea-like score at 1 umol/kg, IT observed for 4 hrs (Rvb= 12.83+/-5.10); set-up: species or system Mustela putorius furo; conditions: in vivo, inhaled_or_intranasal, dose 1 µmol/kg
[14] = Toxicity in ferret assessed as induction of emesis at 1 umol/kg, IT measured for 4 hrs; set-up: species or system Mustela putorius furo; conditions: in vivo, inhaled_or_intranasal, dose 1 µmol/kg
[15] = target: T2, Muscarinic acetylcholine receptor M2 (Homo sapiens, UniProt P08172); assay: Displacement of [3H]-N-methyl Scopolamine Chloride from human M2 receptor membranes incubated for 2 hrs by scintillation counting analysis; format: cell membranes, Cell membrane
T2 sequence (P08172 whole entry): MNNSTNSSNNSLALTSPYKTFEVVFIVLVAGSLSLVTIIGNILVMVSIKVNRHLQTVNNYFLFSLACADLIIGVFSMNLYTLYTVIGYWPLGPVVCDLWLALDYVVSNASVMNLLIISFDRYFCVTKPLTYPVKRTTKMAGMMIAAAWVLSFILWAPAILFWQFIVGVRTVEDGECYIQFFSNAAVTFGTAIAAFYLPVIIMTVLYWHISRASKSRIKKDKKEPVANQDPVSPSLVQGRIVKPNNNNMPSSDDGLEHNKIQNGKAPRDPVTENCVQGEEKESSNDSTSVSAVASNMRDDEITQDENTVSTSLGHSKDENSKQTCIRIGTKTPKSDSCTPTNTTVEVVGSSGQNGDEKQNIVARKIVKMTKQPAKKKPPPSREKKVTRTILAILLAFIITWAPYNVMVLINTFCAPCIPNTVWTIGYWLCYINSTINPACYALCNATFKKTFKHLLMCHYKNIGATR

[16] = Microsomal stability in human liver microsomes assessed as intrinsic clearance at 1 uM measured up to 60 mins by HPLC-MS/MS analysis; format: ADME, Microsome; conditions: read-out: CLH
[17] = Stability in human plasma assessed as half life at 5 uM measured up to 180 mins by HPLC-MS/MS analysis; format: ADME, cell-free
Rattus norvegicus [18] = assay: Antiinflammatory activity in ovalbumin induced Brown Norway rat airway inflammation model assessed as reduction in eosinophil counts in bronchoalveolar lavage administered via inhalation for 3 consecutive days and measured after 24 hrs post last dose; format: functional; conditions: inhaled or nasal
[19] = Toxicity in ferret assessed as induction of emesis at 10 umol/kg, IT measured for 4 hrs; set-up: species or system Mustela putorius furo; conditions: in vivo, inhaled_or_intranasal, dose 10 µmol/kg
[20] = Plasma protein binding in human assessed as bound fraction at 0.5 to 2 uM measured after 30 mins by HPLC-MS/MS analysis; format: ADME, cell-free; conditions: dose 0.5-2 µM, read-out: PPB (converted)
[21] = Microsomal stability in rat liver microsomes assessed as intrinsic clearance at 1 uM measured up to 60 mins by HPLC-MS/MS analysis; format: ADME, Microsome; conditions: read-out: CLH
[22] = Toxicity in ferret assessed as nausea-like score at 10 umol/kg, IT observed for 4 hrs (Rvb= 12.83+/-5.10); set-up: species or system Mustela putorius furo; conditions: in vivo, inhaled_or_intranasal, dose 10 µmol/kg
[23] = Stability in rat plasma assessed as half life at 5 uM measured up to 180 mins by HPLC-MS/MS analysis; format: ADME, cell-free
[24] = Plasma protein binding in rat assessed as bound fraction at 0.5 to 2 uM measured after 30 mins by HPLC-MS/MS analysis; format: ADME, cell-free; conditions: dose 0.5-2 µM, read-out: PPB (converted)
Rattus norvegicus [25] = assay: Antiinflammatory activity in ovalbumin induced Brown Norway rat airway inflammation model assessed as reduction in eosinophil counts in bronchoalveolar lavage at 1 umol/kg, INH for 3 consecutive days and measured after 24 hrs post last dose; format: functional; set-up: scale not given: the % may be the effect or the level left; conditions: dose 1 µmol/kg; time 3 day
[26] = Permeability across apical to basolateral side in human Caco2 cells at 10 uM measured after 1 hr by LC-MS/MS analysis; format: ADME, cell-based; conditions: Caco-2
Cavia porcellus [27] = assay: Bronchodilatory activity in Dunkin Hartley guinea pig model assessed as inhibition of acetylcholine-induced bronchoconstriction at 30 nmol/kg, IT measured after 1 hrs by Konzett-Roessler methodology relative to control; format: functional
Cavia porcellus [28] = assay: Bronchodilatory activity in Dunkin Hartley guinea pig model assessed as inhibition of acetylcholine-induced bronchoconstriction at 30 nmol/kg, IT measured after 16 hrs by Konzett-Roessler methodology relative to control; format: functional
[29] = Cavia porcellus, Dunkin Hartley, 1 h, read-out: ED50
[30] = Cavia porcellus, Dunkin Hartley, read-out: ED50

3',5'-cyclic-AMP phosphodiesterase 4B, sequence (Q07343 whole entry): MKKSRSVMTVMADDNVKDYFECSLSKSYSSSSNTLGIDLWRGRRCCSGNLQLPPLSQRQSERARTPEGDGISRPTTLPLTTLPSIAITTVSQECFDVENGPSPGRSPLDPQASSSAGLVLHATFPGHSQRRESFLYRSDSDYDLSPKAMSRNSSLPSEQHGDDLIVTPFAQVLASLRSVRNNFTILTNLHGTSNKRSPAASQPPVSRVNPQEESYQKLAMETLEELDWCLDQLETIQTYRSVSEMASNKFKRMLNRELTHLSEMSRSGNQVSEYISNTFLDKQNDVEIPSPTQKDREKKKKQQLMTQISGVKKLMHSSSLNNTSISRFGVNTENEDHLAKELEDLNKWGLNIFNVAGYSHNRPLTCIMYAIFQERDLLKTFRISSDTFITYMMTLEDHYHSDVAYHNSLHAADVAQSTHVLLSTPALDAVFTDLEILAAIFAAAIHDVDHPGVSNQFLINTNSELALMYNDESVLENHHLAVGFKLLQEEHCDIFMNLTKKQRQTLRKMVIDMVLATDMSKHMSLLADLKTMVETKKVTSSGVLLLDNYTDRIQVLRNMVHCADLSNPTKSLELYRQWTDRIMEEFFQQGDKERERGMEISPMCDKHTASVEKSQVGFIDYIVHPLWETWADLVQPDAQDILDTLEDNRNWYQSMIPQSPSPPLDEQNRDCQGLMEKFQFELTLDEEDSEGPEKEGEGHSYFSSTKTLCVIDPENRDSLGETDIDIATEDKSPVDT

Work on `COc1ccc([C@H](Cc2c(Cl)c[n+]([O-])cc2Cl)OC(=O)c2ccc(CN(C(=O)O[C@H]3CN4CCC3CC4)c3ccccc3)s2)cc1OC` yielded an IC50 [1] of 1 nM, a pIC50 [2] of 8.4 and an inhibition in vivo at 0.003 µmol/kg (Cavia porcellus [3]; 1 h) of 82%. It also gave a Ki [4] of 0.1 nM, an ED50 (Cavia porcellus [5]; [29]) of 0.0016 µmol/kg and an IC50 [6] of 0.794 nM.

`COc1ccc([C@H](Cc2c(Cl)c[n+]([O-])cc2Cl)OC(=O)c2ccc(CN(C(=O)O[C@H]3CN4CCC3CC4)c3ccccn3)s2)cc1OC` showed an IC50 [1] of 0.631 nM, a pIC50 [2] of 8.7 and an inhibition in vivo at 0.01 µmol/kg (Cavia porcellus [7]) of 78%. The Ki [4] was 0.501 nM and the IC50 [6] was 0.501 nM.

Work on `COc1ccc([C@H](Cc2c(Cl)c[n+]([O-])cc2Cl)OC(=O)c2ccc(CN(C(=O)O[C@H]3CN4CCC3CC4)c3ccccc3F)s2)cc1OC` yielded an inhibition in vivo at 0.003 µmol/kg (Cavia porcellus [8]; Cavia porcellus, Dunkin Hartley) of 38%, an IC50 [1] of 0.501 nM and a pIC50 [2] of 9.1. The inhibition in vivo at 0.003 µmol/kg (Cavia porcellus [3]; 1 h) was 97%, the solubility kinetic at 2 h [9] was 134 µM (≈ 97.9 µg/mL) and the Ki [4] was 0.126 nM. The ED50 (Cavia porcellus [5]; [29]) was 0.0005 µmol/kg and the IC50 [6] was 1.26 nM.

`C[N+]1(C)[C@@H]2C[C@H](OC(=O)C(O)(c3cccs3)c3cccs3)C[C@H]1[C@@H]1O[C@@H]12` gave a T1/2 [10] of 10.3 h and a T1/2 [11] of 22.5 h.

In the case of `COc1ccc([C@H](Cc2c(Cl)c[n+]([O-])cc2Cl)OC(=O)c2ccc(CNC(C(=O)O[C@H]3CN4CCC3CC4)c3ccccc3)s2)cc1OC` (stereo in doubt; 91a), the “inhibition (INH)” value (Cavia porcellus [8]) is reported as 32%, the IC50 [1] is reported as 1.58 nM and the pIC50 [2] is reported as 8.9. It also gave an IC50 [12] of 2 nM, an inhibition in vivo at 0.003 µmol/kg (Cavia porcellus [3]; 1 h) of 73% and a Ki [4] of 0.126 nM. It also gave an ED50 (Cavia porcellus [5]; 1 h) of 0.0016 µmol/kg and an IC50 [6] of 3.16 nM.

In the case of `COc1ccc([C@H](Cc2c(Cl)c[n+]([O-])cc2Cl)OC(=O)c2ccc(CNC(C(=O)O[C@H]3CN4CCC3CC4)c3ccccc3)s2)cc1OC` (stereo in doubt; 92a) [listing 1 of 2 here], the “inhibition (INH)” value (Cavia porcellus [8]) is reported as 67%, the pIC50 [1] is reported as 8.8 and the Activity [13] is reported as 30.67. The Activity [14] was “Non-Toxic”, the Ki [15] was 0.2 nM and the microsomal CLint at 1 µM [16] was 213 µL/min/mg. The half-life at 5 µM [17] was 0.183 h, the ED50 (Rattus norvegicus [18]) was 0.03 µmol/kg and the pIC50 [2] was 9. The Activity [19] was “Non-Toxic”, the IC50 [12] was 1 nM and the fraction unbound at 0.5 h, up to 2 µM [20] was 0.07. For the same compound, the “inhibition (INH)” value (Cavia porcellus [3]; 0.003 umol/kg, 1 h) was 74%, the microsomal CLint at 1 µM [21] was 126 µL/min/mg and the Activity [22] was 12.83. The solubility kinetic at 2 h [9] was 145 µM (≈ 105 µg/mL), the Ki [4] was 0.0631 nM and the half-life at 5 µM [23] was 9 min. For the same compound, the fraction unbound at 0.5 h, up to 2 µM [24] was 0.086, the ED50 (Cavia porcellus [5]; 1 h) was 0.0007 µmol/kg and the Activity (Rattus norvegicus [25]) was 54%. The pIC50 [6] was 8.8 and the Papp A→B at 1 h, 10 µM [26] was 1.6 ×10⁻⁶ cm/s.

For `COc1ccc([C@H](Cc2c(Cl)c[n+]([O-])cc2Cl)OC(=O)c2ccc(CNC(C(=O)O[C@H]3CN4CCC3CC4)c3ccccc3)s2)cc1OC` (stereo in doubt; 92a) [listing 2 of 2 here], the T1/2 [10] was 13.7 h and the T1/2 [11] was 29.5 h.

With `COc1ccc([C@H](Cc2c(Cl)c[n+]([O-])cc2Cl)OC(=O)c2ccc(CNC(C(=O)OC3CCN(C)CC3)c3ccccc3)s2)cc1OC` (stereo in doubt; 92e) the IC50 [1] was 0.501 nM, the IC50 [12] was 1.58 nM and the inhibition in vivo at 0.03 µmol/kg (Cavia porcellus [27]) was 75%. For the same compound, the inhibition in vivo at 0.03 µmol/kg (Cavia porcellus [28]) was 2%, the Ki [4] was 0.251 nM and the ED50 (Cavia porcellus [5]; [30]) was 0.0041 µmol/kg. For the same compound, the pIC50 [6] was 8.6.

`COc1ccc([C@H](Cc2c(Cl)c[n+]([O-])cc2Cl)OC(=O)c2ccc(CNC(C(=O)O[C@@H]3CCN(C)C3)c3ccccc3)s2)cc1OC` (stereo in doubt; 92f) gave an IC50 [1] of 1.58 nM, an IC50 [12] of 1.58 nM and an inhibition in vivo at 0.03 µmol/kg (Cavia porcellus [28]) of 41%. It also gave an inhibition in vivo at 0.003 µmol/kg (Cavia porcellus [3]) of 96%, a Ki [4] of 0.126 nM and an ED50 (Cavia porcellus [5]; [30]) of 0.001 µmol/kg. The pIC50 [6] was 8.5.

In the case of `O=C(Nc1c(Cl)cncc1Cl)c1ccc(OC(F)F)c(OCC2CC2)c1` [ROFLUMILAST], the Activity [19] is reported as “Toxic” and the Activity [22] is reported as 72.5.
